One block for each compound: values may come before it.
Assay: solvent given as SMILES

SMILES: c1ccc(-c2nc3c(c4c2-c2ccccc2CC4)-c2ccccc2CC3)cc1
absorption maximum (in C1CCOC1): 314 nm | absorption maximum (in CC#N): 308 nm | absorption maximum (in CCCCCC): 309 nm | absorption maximum (in CCOC(C)=O): 314 nm | absorption maximum (in CO): 318 nm | absorption maximum (in CS(C)=O): 316 nm | absorption maximum (in Cc1ccccc1): 312 nm | absorption maximum (in ClCCl): 318 nm

absorption maximum (in CCCCCC): 199 nm
SMILES: CCCN(CCC)CCC

SMILES: CCc1c(C)[nH]c(C2=[N+]3C(=Cc4c(C)c(CC)c(/C=C/c5ccc(N(C)C)cc5)n4[B-]3(F)F)c3ccccc32)c1C
absorption maximum (in C1CCOC1): 720 nm | absorption maximum (in CC#N): 713 nm | absorption maximum (in CCCCCC): 719 nm | absorption maximum (in CO): 712 nm | absorption maximum (in Cc1ccccc1): 730 nm | absorption maximum (in ClCCl): 725 nm

SMILES: Cc1ccc(C2=C3C=CC(Cl)=[N+]3[B-](F)(F)n3c(Cl)ccc32)cc1
absorption maximum (in C1CCCCC1): 514 nm | absorption maximum (in C1CCOC1): 511 nm | absorption maximum (in CC#N): 508 nm | absorption maximum (in CCOC(C)=O): 509 nm | absorption maximum (in CO): 508 nm | absorption maximum (in Cc1ccccc1): 516 nm | absorption maximum (in ClC(Cl)Cl): 515 nm

absorption maximum (in C1CCCCC1): 431 nm | absorption maximum (in C1CCOC1): 435 nm | absorption maximum (in CC#N): 434 nm
SMILES: COc1ccc2nc3c(nc2c1)c(-c1ccccc1)nn3C

absorption maximum (in ClCCl): 407 nm
SMILES: Fc1ccc(C#Cc2nc(C#Cc3ccc(F)cc3)c(C#Cc3ccc(F)cc3)c(C#Cc3ccc(F)cc3)c2C#Cc2ccc(F)cc2)cc1

absorption maximum (in C1COCCO1): 307.36 nm | absorption maximum (in CC#N): 309.69 nm | absorption maximum (in O): 308 nm
SMILES: N#Cc1cccc2cc[nH]c12

absorption maximum (in C1COCCO1): 528 nm | absorption maximum (in ClCCl): 549 nm
SMILES: CCCCN(CCCC)c1ccc(/C=C/c2ccc3nc(/C=C/c4nc5ccc(/C=C/c6ccc(N(CCCC)CCCC)cc6)cc5n(CCC)c4=O)c(=O)n(CCC)c3c2)cc1

absorption maximum (in CC#N): 342 nm | absorption maximum (in CCCCOCCCC): 342 nm | absorption maximum (in CO): 340 nm
SMILES: c1ccc(Nc2nc(Nc3ccccc3)nc(Nc3ccc4ccc5cccc6ccc3c4c56)n2)cc1

SMILES: O=P1(c2ccccc2)C(c2cc(C(F)(F)F)cc(C(F)(F)F)c2)=Cc2c3ccc4cccc5ccc(c6cc(-c7ccc(N(c8ccccc8)c8ccccc8)cc7)n1c26)c3c45 (centres undefined)
absorption maximum (in C1CCCCC1): 434 nm | absorption maximum (in C1CCOC1): 437 nm | absorption maximum (in C1COCCO1): 436 nm | absorption maximum (in CC#N): 434 nm | absorption maximum (in CC(C)=O): 435 nm | absorption maximum (in CO): 444 nm | absorption maximum (in Cc1ccccc1): 441 nm | absorption maximum (in ClC(Cl)Cl): 441 nm | absorption maximum (in ClCCl): 437 nm

absorption maximum (in CC#N): 376 nm | absorption maximum (in CN(C)C=O): 410 nm | absorption maximum (in ClCCl): 403 nm
SMILES: CCN(CC)c1ccc(/C=N/C2CCCCC2/N=C/c2ccc(N(CC)CC)cc2O)c(O)c1 (centres undefined)

absorption maximum (in ClC(Cl)Cl): 476 nm
SMILES: CN(c1ccccc1)c1ccc(-c2ccc(-c3ccc(N(C)c4ccccc4)cc3)c3nc(-c4ccccc4)c(-c4ccccc4)nc23)cc1

absorption maximum (in ClCCl): 354 nm
SMILES: C[Si]1(C)c2ccc(-c3cccs3)cc2C=Cc2cc(-c3cccs3)ccc21

absorption maximum (in ClC(Cl)Cl): 606 nm
SMILES: CCCCCCCCC1(CCCCCCCC)c2cc3c(cc2-c2sc(-c4ccc(/C=C5\SC(N6CCCCC6)=NC5=O)c5nsnc45)cc21)C(CCCCCCCC)(CCCCCCCC)c1cc(-c2ccc(/C=C4\SC(N5CCCCC5)=NC4=O)c4nsnc24)sc1-3

absorption maximum (in C1CCCCC1): 406 nm
SMILES: Cc1cc(C)c(B2c3cc(C(C)(C)C)ccc3-c3c(-c4ccccc4)ccc4cc(C(C)(C)C)cc2c34)c(C)c1

SMILES: Cc1ccccc1/C(C#N)=C/c1ccc(N(C)C)cc1
absorption maximum (in C1CCOC1): 376 nm | absorption maximum (in C1COCCO1): 376 nm | absorption maximum (in CC#N): 377 nm | absorption maximum (in CCCCCC): 364 nm | absorption maximum (in CCCCCCC): 376 nm | absorption maximum (in CCCCCO): 376 nm | absorption maximum (in CCCCO): 376 nm | absorption maximum (in CCCO): 374 nm | absorption maximum (in CCO): 376 nm | absorption maximum (in CCOC(C)=O): 373 nm | absorption maximum (in CN(C)C=O): 382 nm | absorption maximum (in CO): 374 nm | absorption maximum (in CS(C)=O): 385 nm | absorption maximum (in Cc1ccccc1): 366 nm | absorption maximum (in ClC(Cl)Cl): 378 nm

absorption maximum (in ClCCl): 336 nm
SMILES: CCCCn1c2ccc(-c3ccc4c(c3)c3c5c(ccc6ccc7ccccc7c65)ccc3n4CCCC)cc2c2c3c(ccc4ccc5ccccc5c43)ccc21

SMILES: Cc1cc(Br)cn(Cn2cccc(C)c2=O)c1=N
absorption maximum (in CC(=O)O): 310 nm

absorption maximum (in C1CCOC1): 733 nm
SMILES: CCCCCCc1ccsc1-c1ccc2c(c1)C1=[N+]3C2=Cc2c4ccc(-c5sccc5CCCCCC)cc4c4n2[B-]3(Oc2ccccc21)Oc1ccccc1-4 (centres undefined)

absorption maximum (in CC#N): 280 nm | absorption maximum (in CCOC(C)=O): 280 nm | absorption maximum (in CO): 280 nm
SMILES: COC(=O)C[C@H](Cc1c[nH]c2ccccc12)NC(=O)[C@H](CC(=O)N[C@@H](CC1=CCc2ccccc21)C(=O)OC)NC(=O)OC(C)(C)C

absorption maximum (in ClCCl): 425 nm
SMILES: CC(C)(C)c1ccc(N(c2ccc(C(C)(C)C)cc2)c2cc(N(c3ccc(C(C)(C)C)cc3)c3ccc(C(C)(C)C)cc3)c3ccc4cc(C(C)(C)C)cc5ccc2c3c54)cc1

SMILES: COC(=O)C(Cc1ccc2oc(-c3ccc(N(C)C)cc3)nc2c1)NC(=O)OC(C)(C)C (centres undefined)
absorption maximum (in C1CCCCC1): 335.1 nm | absorption maximum (in C1CCOC1): 341.8 nm | absorption maximum (in C1COCCO1): 340.8 nm | absorption maximum (in CC1CCCO1): 338.9 nm | absorption maximum (in CC1COC(=O)O1): 345.1 nm | absorption maximum (in CC#N): 343.39 nm | absorption maximum (in CC(C)=O): 343.1 nm | absorption maximum (in CC(C)CC(C)(C)C): 333 nm | absorption maximum (in CC(C)CO): 344.49 nm | absorption maximum (in CC(C)O): 343.9 nm | absorption maximum (in CC(C)OC(C)C): 339.5 nm | absorption maximum (in CC(O)CO): 349.5 nm | absorption maximum (in CCC(C)CC): 333 nm | absorption maximum (in CCCCC): 332.9 nm | absorption maximum (in CCCCCC): 333.6 nm | absorption maximum (in CCCCCCCCC): 334.9 nm | absorption maximum (in CCCCCCCCCC): 334.9 nm | absorption maximum (in CCCCCCCO): 345.7 nm | absorption maximum (in CCCCCCO): 345.6 nm | absorption maximum (in CCCCCO): 342.7 nm | absorption maximum (in CCCCO): 345.9 nm | absorption maximum (in CCO): 346.6 nm | absorption maximum (in CCOC(C)=O): 339.7 nm | absorption maximum (in CCOCC): 338.2 nm | absorption maximum (in CN(C)C=O): 346.5 nm | absorption maximum (in CO): 346.5 nm | absorption maximum (in COCCOC): 343.9 nm | absorption maximum (in CS(C)=O): 348.5 nm | absorption maximum (in Cc1ccccc1): 342 nm | absorption maximum (in Cc1ccccc1C): 341.4 nm | absorption maximum (in ClC(Cl)Cl): 344.6 nm | absorption maximum (in ClCCl): 344.49 nm | absorption maximum (in NC=O): 349.41 nm | absorption maximum (in OC1CCCCC1): 346.5 nm | absorption maximum (in OCCO): 351.9 nm | absorption maximum (in c1ccccc1): 342.99 nm

absorption maximum (in ClCCl): 304 nm
SMILES: O=P(c1ccccc1)(c1ccccc1)c1cccc(-c2nc3ccccc3n2-c2cccc(P(=O)(c3ccccc3)c3ccccc3)c2)c1

absorption maximum (in CCO): 443 nm
SMILES: CCOC(=O)c1cc(C(=O)OCC)c2cc(N(C)C)ccc2n1

absorption maximum (in CS(C)=O): 500 nm | absorption maximum (in O): 525 nm | absorption maximum (in OCC(O)CO): 560 nm
SMILES: C[n+]1ccc(/C=C/c2ccc(N(c3ccccc3)c3ccc(/C=C/c4cc[n+](C)cn4)cc3)cc2)nc1

SMILES: CCn1c2ccccc2c2cc(C#Cc3cc(C#Cc4ccc5c(c4)c4ccccc4n5CC)nc(C#N)n3)ccc21
absorption maximum (in C1CCOC1): 410 nm | absorption maximum (in CCOC(C)=O): 405 nm | absorption maximum (in CN(C)C=O): 411 nm | absorption maximum (in Cc1ccccc1): 410 nm | absorption maximum (in ClCCl): 415 nm

absorption maximum (in CC#N): 350 nm | absorption maximum (in ClCCl): 370 nm
SMILES: CCCCCCCCCCCCc1ccc(-c2cc(C)[o+]c(C)c2)cc1

absorption maximum (in ClCCl): 311 nm
SMILES: COC(=O)C1=C(C(=O)OC)C2(c3ccccc3-c3c(C(=O)OC)cccc32)[C@@H](c2ccc(Cl)cc2)C=C2c3cc(OC)c(OC)cc3CCN21 (some centres undefined)

absorption maximum (in ClCCl): 343 nm
SMILES: ClP1(Cl)=N[P@@](Cl)(Oc2ccc3ccc4cccc5ccc2c3c45)=N[P@@](Cl)(Oc2ccc3ccc4cccc5ccc2c3c45)=N1

absorption maximum (in CS(C)=O): 399 nm | absorption maximum (in O): 396 nm
SMILES: O=c1c2cc(S(=O)(=O)O)ccc2[nH]c2ccc(S(=O)(=O)O)cc12

SMILES: CC[N+]1(CC)CN2C(=N1)C(C(=O)[O-])=Cc1ccccc12
absorption maximum (in CN(C)C=O): 378 nm | absorption maximum (in O): 369 nm

absorption maximum (in ClCCl): 353 nm
SMILES: CCOC(=O)c1ccc(C2=Cc3ccccc3P2(=O)c2ccccc2)cc1 (centres undefined)

SMILES: CC1=CC(c2ccc(N(C)C)cc2)=[N+]2C1=Nc1c(C)cc(-c3ccc(N(C)C)cc3)n1[B-]2(F)F
absorption maximum (in C1CCOC1): 744 nm | absorption maximum (in CS(C)=O): 774 nm | absorption maximum (in Cc1ccccc1): 734 nm

absorption maximum (in C1CCOC1): 368 nm | absorption maximum (in CC#N): 369 nm | absorption maximum (in CCCCCC): 362 nm
SMILES: CC1=N/C(=C\c2ccc(C#N)c(N(C)C)c2)C(=O)N1C

SMILES: CCCCOc1ccc(-c2oc3cc4n(c3c2-c2ccc(OCCCC)cc2)[B-](F)(F)[N+]2=Cc3cc5oc(-c6ccc(OCCCC)cc6)c(-c6ccc(OCCCC)cc6)c5n3[B-](F)(F)[N+]2=C4)cc1
absorption maximum (in C1CCOC1): 596 nm | absorption maximum (in CN(C)C=O): 593 nm | absorption maximum (in CS(C)=O): 594 nm | absorption maximum (in Cc1ccccc1): 608 nm | absorption maximum (in ClC(Cl)Cl): 610 nm | absorption maximum (in ClCCl): 606 nm

absorption maximum (in CCCCCC): 344 nm | absorption maximum (in CO): 344 nm | absorption maximum (in ClCCl): 347 nm
SMILES: CCCCc1ccc2ccc3c(CCCC)ccc4ccc1c2c43

absorption maximum (in CCOC(C)=O): 474 nm
SMILES: COC(=O)c1ccc(/N=N/c2cc3c4c(c2)CCCN4CCC3)cc1

absorption maximum (in ClCCl): 352 nm
SMILES: c1csc(-c2ccc3c4ccc(-c5cccs5)cc4n(-c4cccs4)c3c2)c1

SMILES: CCOc1cc2c(cc1/C=C/C1=CC(=C(C#N)C#N)CC(C)(C)C1)c1ccccc1n2CC
absorption maximum (in C1CCOC1): 476 nm | absorption maximum (in CC#N): 474 nm | absorption maximum (in CCO): 480 nm | absorption maximum (in CCOC(C)=O): 469 nm | absorption maximum (in CN(C)C=O): 487 nm | absorption maximum (in CS(C)=O): 491 nm | absorption maximum (in Cc1ccccc1): 474 nm | absorption maximum (in ClC(Cl)Cl): 480 nm | absorption maximum (in ClCCl): 479 nm

absorption maximum (in ClC(Cl)Cl): 385 nm
SMILES: Cc1ccc(C(=O)/N=c2\oc3cccc4c5c(-c6ccccc6)oc6cccc(c(c2-c2ccccc2)c34)c65)cc1
